{
  "source": "ChEMBL document CHEMBL5729193",
  "about": "“Aromatic vinyl or aromatic ethyl derivative, preparation method therefor, intermediate, pharmaceutical composition, and application” (2022)",
  "data": [
    {"target": "Programmed cell death protein 1/Programmed cell death 1 ligand 1 (Homo sapiens, UniProt Q15116+Q9NZQ7)", "sequence (Q15116 whole entry)": "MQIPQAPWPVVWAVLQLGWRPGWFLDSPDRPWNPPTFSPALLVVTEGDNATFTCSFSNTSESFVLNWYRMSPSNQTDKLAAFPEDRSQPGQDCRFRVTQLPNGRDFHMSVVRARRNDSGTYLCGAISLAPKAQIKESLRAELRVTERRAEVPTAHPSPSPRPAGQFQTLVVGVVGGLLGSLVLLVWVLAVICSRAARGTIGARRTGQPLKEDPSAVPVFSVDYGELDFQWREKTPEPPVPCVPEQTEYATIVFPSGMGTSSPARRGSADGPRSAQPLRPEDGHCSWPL", "sequence (Q9NZQ7 whole entry)": "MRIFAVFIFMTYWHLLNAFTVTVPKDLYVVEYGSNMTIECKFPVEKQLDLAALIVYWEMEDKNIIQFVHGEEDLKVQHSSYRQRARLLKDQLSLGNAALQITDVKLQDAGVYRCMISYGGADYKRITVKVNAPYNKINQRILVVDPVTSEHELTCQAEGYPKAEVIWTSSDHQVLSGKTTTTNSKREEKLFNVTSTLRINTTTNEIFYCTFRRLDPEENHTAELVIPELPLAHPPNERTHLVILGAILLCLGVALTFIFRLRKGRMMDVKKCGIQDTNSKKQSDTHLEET", "assay": "Homogenouse Time-Resolved Fluorescence (HTRF) Binding Assay: Experimental Procedure1. The compound was formulated to 10 concentrations with a three-fold concentration gradient with 100% DMSO.2. The solution of the compound in DMSO was added to Dilute Buffer, and mixed evenly and then transferred to a 96-well plate.3. PD-L1 was diluted with Dilute Buffer and added to the 96-well plate above.4. PD-1 was diluted with Dilute Buffer, then added to the 96-well plate above and incubated at room temperature for 30 minutes.5. One portion of anti-tag1-Eu and one portion of anti-tag2-XL665 were added to Detection Buffer, mixed evenly and transferred to the 96-well plate above.6. The mixed solution in the 96-well plate were incubated at room temperature for 1 to 24 hours.7. HTRF values were read by Envision.", "format": "protein-complex assay", "units": {"IC50": "nM"}, "values": [
      {"smiles": "Cc1ccc(CNC(C)(CO)C(=O)O)cc1/C=C/c1cccc(-c2ccc(F)cc2)c1C", "note": "(configuration not stated)", "IC50": 1400},
      {"smiles": "Cc1c(CCc2cc(CNC(C)(CO)C(=O)O)ccc2C(F)(F)F)cccc1-c1ccccc1", "note": "(configuration not stated)", "IC50": 85},
      {"smiles": "Cc1c(/C=C/c2cc(CN[C@@](C)(CO)C(=O)O)ccc2C(F)(F)F)cccc1-c1cccnc1", "IC50": 580},
      {"smiles": "Cc1c(/C=C/c2cc(CNC(C)(CO)C(=O)O)ccc2C(F)(F)F)cccc1-c1ccc(F)cc1", "note": "(configuration not stated)", "IC50": 320},
      {"smiles": "Cc1ccc(CNC(C)(CO)C(=O)O)cc1/C=C/c1cccc(-c2cccc(F)c2)c1C", "note": "(configuration not stated)", "IC50": 57},
      {"smiles": "Cc1c(CCc2cc(CNC(CO)C(=O)O)ccc2C(F)(F)F)cccc1-c1ccccc1", "note": "(configuration not stated)", "IC50": 46},
      {"smiles": "Cc1c(/C=C/c2cc(C(C)NCC(=O)O)ccc2C(F)(F)F)cccc1-c1ccccc1", "note": "(configuration not stated)", "IC50": 24},
      {"smiles": "Cc1c(/C=C/c2cc(CN[C@@](C)(CO)C(=O)O)ccc2C(F)(F)F)cccc1-c1ccc2ncoc2c1", "IC50": 1100},
      {"smiles": "Cc1c(/C=C/c2cc(CNC(C)(CO)C(=O)O)ccc2C(F)(F)F)cccc1-c1ccccc1F", "note": "(configuration not stated)", "IC50": 20},
      {"smiles": "Cc1c(/C=C/c2cc(CN[C@@](C)(CO)C(=O)O)ccc2C(F)(F)F)cccc1-c1cnccn1", "IC50": 540},
      {"smiles": "Cc1c(/C=C/c2cc(CNC(CO)C(=O)O)ccc2C(F)(F)F)cccc1-c1ccc2c(c1)OCCO2", "note": "(configuration not stated)", "IC50": 14},
      {"smiles": "Cc1c(/C=C/c2cc(CN[C@@](C)(CO)C(=O)O)ccc2C(F)(F)F)cccc1-c1ccccn1", "IC50": 2200},
      {"smiles": "COc1ccc(-c2cccc(/C=C/c3cc(CNC(C)(CO)C(=O)O)ccc3C)c2C)cc1", "note": "(configuration not stated)", "IC50": 3100},
      {"smiles": "Cc1c(/C=C/c2cc(CNC(C)(CO)C(=O)O)ccc2C(F)(F)F)cccc1-c1cccc(F)c1", "note": "(configuration not stated)", "IC50": 46},
      {"smiles": "Cc1c(/C=C/c2cc(CNC(CO)C(=O)O)ccc2C(F)(F)F)cccc1-c1ccccc1F", "note": "(configuration not stated)", "IC50": 13},
      {"smiles": "Cc1c(CCc2cc(CNC(C)C(=O)O)ccc2C(F)(F)F)cccc1-c1ccccc1", "note": "(configuration not stated)", "IC50": 44},
      {"smiles": "Cc1c(/C=C/c2cc(CN[C@@](C)(CO)C(=O)O)ccc2C(F)(F)F)cccc1-c1ccc2cn(C)nc2c1", "IC50": 880}
    ]}
  ]
}
